Test results as given in the supplement of paper PMC10307832.

What was measured:
Experiment in all cases: relative viability (nuclei count vs DMSO), 5 days (fraction); higher = more cells survive
[1] = tested on: NCI-H358
How it was run: (§1)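 Relative viability was taken as the ratio of nuclei in treated wells to nuclei in vehicle wells. Lung cancer cell lines in 1536-well plates received compounds by pin tool one day after seeding, either one drug alone or a fixed anchor-drug dose plus five library-drug doses (not always all listed) in √10 steps. Nuclei were counted on 4× images after 5 days of treatment, and values are medians of duplicate plates.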

[2] = tested on: EPLC-272H
How it was run: as §1

[3] = tested on: UMC-11
How it was run: as §1

[4] = tested on: NCI-H1792
How it was run: as §1

[5] = tested on: NCI-H1915
How it was run: as §1

[6] = tested on: HCC-366
How it was run: as §1

[7] = tested on: LXF-289
How it was run: as §1

[8] = tested on: LC-2-ad
How it was run: as §1

[9] = tested on: SW 900
How it was run: as §1

[10] = tested on: SK-LU-1
How it was run: as §1

[11] = tested on: HOP-62
How it was run: as §1

[12] = tested on: HCC-78
How it was run: as §1

[13] = tested on: NCI-H1666
How it was run: as §1

[14] = tested on: NCI-H2170
How it was run: as §1

[15] = tested on: LU99A
How it was run: as §1

[16] = tested on: NCI-H1793
How it was run: as §1

[17] = tested on: A-427
How it was run: as §1

[18] = tested on: NCI-H2009
How it was run: as §1

[19] = tested on: NCI-H1944
How it was run: as §1

[20] = tested on: COR-L 105
How it was run: as §1

[21] = tested on: NCI-H2085
How it was run: as §1

[22] = tested on: NCI-H460
How it was run: as §1

## CC(=O)O[C@@]12CO[C@@H]1C[C@H](O)[C@@]1(C)C(=O)[C@H](O)C3=C(C)[C@@H](OC(=O)[C@H](O)[C@@H](NC(=O)OC(C)(C)C)c4ccccc4)C[C@@](O)([C@@H](OC(=O)c4ccccc4)[C@H]21)C3(C)C [Docetaxel] + Nc1nc2[nH]cc(CCc3ccc(C(=O)N[C@@H](CCC(=O)O)C(=O)O)cc3)c2c(=O)[nH]1 [Pemetrexed] (partner 0.2 µM)
[1]; first compound 0.0002 µM
  relative viability: 0.16
[1]; first compound 0.000632 µM
  relative viability: 0.172
[1]; first compound 0.002 µM
  relative viability: 0.164
[1]; first compound 0.006325 µM
  relative viability: 0.155
[1]; first compound 0.02 µM
  relative viability: 0.117
[2]; first compound 0.0002 µM
  relative viability: 0.298
[2]; first compound 0.000632 µM
  relative viability: 0.187
[2]; first compound 0.002 µM
  relative viability: 0.139
[2]; first compound 0.006325 µM
  relative viability: 0.0965
[2]; first compound 0.02 µM
  relative viability: 0.111
[3]; first compound 0.0002 µM
  relative viability: 0.717
[3]; first compound 0.000632 µM
  relative viability: 0.698
[3]; first compound 0.002 µM
  relative viability: 0.325
[3]; first compound 0.006325 µM
  relative viability: 0.256
[3]; first compound 0.02 µM
  relative viability: 0.195
[4]; first compound 0.0002 µM
  relative viability: 0.764
[4]; first compound 0.000632 µM
  relative viability: 0.533
[4]; first compound 0.002 µM
  relative viability: 0.223
[4]; first compound 0.006325 µM
  relative viability: 0.105
[4]; first compound 0.02 µM
  relative viability: 0.0705
[5]; first compound 0.0002 µM
  relative viability: 0.562
[5]; first compound 0.000632 µM
  relative viability: 0.47
[5]; first compound 0.002 µM
  relative viability: 0.327
[5]; first compound 0.006325 µM
  relative viability: 0.152
[5]; first compound 0.02 µM
  relative viability: 0.108
[6]; first compound 0.0002 µM
  relative viability: 0.162
[6]; first compound 0.000632 µM
  relative viability: 0.16
[6]; first compound 0.002 µM
  relative viability: 0.0677
[6]; first compound 0.006325 µM
  relative viability: 0.0361
[6]; first compound 0.02 µM
  relative viability: 0.0202
[7]; first compound 0.0002 µM
  relative viability: 0.875
[7]; first compound 0.000632 µM
  relative viability: 0.8
[7]; first compound 0.002 µM
  relative viability: 0.363
[7]; first compound 0.006325 µM
  relative viability: 0.116
[7]; first compound 0.02 µM
  relative viability: 0.0871
[8]; first compound 0.0002 µM
  relative viability: 0.259
[8]; first compound 0.000632 µM
  relative viability: 0.221
[8]; first compound 0.006325 µM
  relative viability: 0.173
[8]; first compound 0.02 µM
  relative viability: 0.181
[9]; first compound 0.0002 µM
  relative viability: 0.462
[9]; first compound 0.000632 µM
  relative viability: 0.332
[9]; first compound 0.002 µM
  relative viability: 0.303
[9]; first compound 0.006325 µM
  relative viability: 0.281
[9]; first compound 0.02 µM
  relative viability: 0.24
[10]; first compound 0.0002 µM
  relative viability: 0.947
[10]; first compound 0.000632 µM
  relative viability: 0.725
[10]; first compound 0.002 µM
  relative viability: 0.535
[10]; first compound 0.006325 µM
  relative viability: 0.337
[10]; first compound 0.02 µM
  relative viability: 0.258
[11]; first compound 0.0002 µM
  relative viability: 0.324
[11]; first compound 0.000632 µM
  relative viability: 0.362
[11]; first compound 0.002 µM
  relative viability: 0.304
[12]; first compound 0.0002 µM
  relative viability: 0.892
[12]; first compound 0.000632 µM
  relative viability: 0.868
[12]; first compound 0.002 µM
  relative viability: 0.88
[12]; first compound 0.006325 µM
  relative viability: 0.889
[12]; first compound 0.02 µM
  relative viability: 0.861
[13]; first compound 0.0002 µM
  relative viability: 0.946
[13]; first compound 0.000632 µM
  relative viability: 0.808
[13]; first compound 0.002 µM
  relative viability: 0.801
[13]; first compound 0.006325 µM
  relative viability: 0.858
[13]; first compound 0.02 µM
  relative viability: 0.542
[14]; first compound 0.0002 µM
  relative viability: 0.26
[14]; first compound 0.000632 µM
  relative viability: 0.257
[14]; first compound 0.002 µM
  relative viability: 0.251
[14]; first compound 0.006325 µM
  relative viability: 0.177
[14]; first compound 0.02 µM
  relative viability: 0.174
[15]; first compound 0.0002 µM
  relative viability: 0.208
[15]; first compound 0.000632 µM
  relative viability: 0.201
[15]; first compound 0.002 µM
  relative viability: 0.217
[15]; first compound 0.006325 µM
  relative viability: 0.207
[15]; first compound 0.02 µM
  relative viability: 0.19
[16]; first compound 0.0002 µM
  relative viability: 0.842
[16]; first compound 0.000632 µM
  relative viability: 0.603
[16]; first compound 0.002 µM
  relative viability: 0.251
[16]; first compound 0.006325 µM
  relative viability: 0.271
[16]; first compound 0.02 µM
  relative viability: 0.188
[17]; first compound 0.0002 µM
  relative viability: 0.886
[17]; first compound 0.000632 µM
  relative viability: 0.946
[17]; first compound 0.002 µM
  relative viability: 0.822
[17]; first compound 0.006325 µM
  relative viability: 0.323
[18]; first compound 0.0002 µM
  relative viability: 0.946
[18]; first compound 0.000632 µM
  relative viability: 1.03
[18]; first compound 0.002 µM
  relative viability: 0.956
[18]; first compound 0.006325 µM
  relative viability: 0.733
[18]; first compound 0.02 µM
  relative viability: 0.27
[19]; first compound 0.0002 µM
  relative viability: 0.619
[19]; first compound 0.000632 µM
  relative viability: 0.568
[19]; first compound 0.002 µM
  relative viability: 0.521
[19]; first compound 0.006325 µM
  relative viability: 0.248
[19]; first compound 0.02 µM
  relative viability: 0.118
[20]; first compound 0.0002 µM
  relative viability: 1.06
[20]; first compound 0.000632 µM
  relative viability: 1.12
[20]; first compound 0.002 µM
  relative viability: 0.656
[20]; first compound 0.006325 µM
  relative viability: 0.492
[20]; first compound 0.02 µM
  relative viability: 0.388
[21]; first compound 0.0002 µM
  relative viability: 0.84
[21]; first compound 0.000632 µM
  relative viability: 0.902
[21]; first compound 0.002 µM
  relative viability: 0.552
[21]; first compound 0.006325 µM
  relative viability: 0.545
[21]; first compound 0.02 µM
  relative viability: 0.301
[22]; first compound 0.0002 µM
  relative viability: 0.0551
[22]; first compound 0.000632 µM
  relative viability: 0.0652
[22]; first compound 0.002 µM
  relative viability: 0.0375
[22]; first compound 0.006325 µM
  relative viability: 0.0299
[22]; first compound 0.02 µM
  relative viability: 0.021
